Source: US20050239656A1, “Pyridine compounds or salts thereof and herbicides containing the same” (priority 2002, published 2005)

Tests used:
barnyardgrass [1] = experiment: Test Example 1: foliage treatment, upland pot test; format: in vivo, Echinochloa crus-galli L.; details: observed 18th to 23rd day, 0 = non-treated, 100 = complete kill
Procedure, shortened: (§1)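 Upland pot test, foliar. Soybean 0.1–0.4 / wheat 1.3–2.4 / rice 1.2–2.6 / barnyardgrass 1.3–2.8 leaf stage at spraying; 500 L/ha carrier, 0.1% (v/v) spreader. Visual % control, 0 untreated to 100 dead, days 18–23.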

crabgrass [2] = experiment: Test Example 1: foliage treatment, upland pot test; format: in vivo, Digitaria sanguinalis L.; details: observed 18th to 23rd day, 0 = non-treated, 100 = complete kill
green foxtail [3] = experiment: Test Example 1: foliage treatment, upland pot test; format: in vivo, Setaria viridis L.; details: observed 18th to 23rd day, 0 = non-treated, 100 = complete kill
redroot pigweed [4] = experiment: Test Example 1: foliage treatment, upland pot test; format: in vivo, Amaranthus retroflexus L.; details: observed 18th to 23rd day, 0 = non-treated, 100 = complete kill
prickly sida [5] = experiment: Test Example 1: foliage treatment, upland pot test; format: in vivo, Sida spinosa L.; details: observed 18th to 23rd day, 0 = non-treated, 100 = complete kill
velvetleaf [6] = experiment: Test Example 1: foliage treatment, upland pot test; format: in vivo, Abutilon theophrasti MEDIC.; details: observed 18th to 23rd day, 0 = non-treated, 100 = complete kill
rice [7] = experiment: Test Example 1: foliage treatment, upland pot test; format: in vivo, Oryza sativa L.; details: crop, observed 18th to 23rd day, 0 = non-treated, 100 = complete kill
Procedure, shortened: as §1

wheat [8] = experiment: Test Example 1: foliage treatment, upland pot test; format: in vivo, Triticum spp.; details: crop, observed 18th to 23rd day, 0 = non-treated, 100 = complete kill
From the text: Upland field soil was put into a 1/170,000 ha pot, and seed of various plants were sown. Then, when the plants reached predetermined leaf stages ((1) barnyardgrass: 1.3 to 2.8 leaf stages, (2) crabgrass: 1.0 to 2.8 leaf stages, (3) green foxtail: 1.3 to 2.6 leaf stages, (4) redroot pigweed: 0.1 to 1.2 leaf stages, (5) prickly sida: 0.1 to 1.2 leaf stages, (6) velvetleaf: 0.1 to 1.2 leaf stages, (7) tall morningglory: 0.1 to 1.5 leaf stages, (8) rice: 1.2 to 2.6 leaf stages, (9) wheat: 1.3 to 2.4 leaf stages, (10) corn, 2.1 to 3.2 leaf stages, (11) soybean: 0.1 to 0.4 leaf stage), a wettable powder or emulsifiable concentrate having the compound of the present invention formulated in accordance with a usual formulation method, was weighed so that the active ingredient would be a predetermined amount, and diluted with water in an amount of 500 L/ha. To the diluted solution, 0.1% (v/v) of agricultural spreader was added. The herbicide thus adjusted was applied by a small size sprayer for foliage treatment. On the 18th to 23rd days after the application of the herbicide, the growth of the respective plants was visually observed, and the herbicidal effects were evaluated by the growth controlling degrees (%) ranging from 0 (equivalent to the non-treated plot) to 100 (complete kill), whereby the results shown in Table 3, were obtained.

corn [9] = experiment: Test Example 1: foliage treatment, upland pot test; format: in vivo, Zea mays L.; details: crop, observed 18th to 23rd day, 0 = non-treated, 100 = complete kill
Procedure, shortened: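 In this upland pot foliage test, corn plants at 2.1 to 3.2 leaf stages were sprayed by a small size sprayer. The spray was a conventionally formulated wettable powder or emulsifiable concentrate weighed to a set active ingredient amount, diluted in water at 500 L/ha, plus 0.1% (v/v) agricultural spreader. Visual assessment on days 18 to 23 gave growth controlling degree (%), where 0 equals untreated and 100 means complete kill.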

soybean [10] = experiment: Test Example 1: foliage treatment, upland pot test; format: in vivo, Glycine max Merr.; details: crop, observed 18th to 23rd day, 0 = non-treated, 100 = complete kill
Procedure, shortened: as §1

barnyardgrass [11] = experiment: Test Example 2: soil surface treatment, upland pot test; format: in vivo, Echinochloa crus-galli L.; details: observed 20th to 28th day
Procedure, shortened: (§2)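 Soil surface treated 1 day post-sowing. Formulation: WP or EC, predetermined a.i., diluted to 1,500 L/ha. Pot size 1/170,000 ha, upland soil. Readout: visual % control, 0 = non-treated, 100 = dead, days 20–28.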

crabgrass [12] = experiment: as above; format: in vivo, Digitaria sanguinalis L.; details: observed 20th to 28th day
Procedure, shortened: as §2

green foxtail [13] = experiment: as above; format: in vivo, Setaria viridis L.; details: observed 20th to 28th day
Procedure, shortened: as §2

redroot pigweed [14] = experiment: as above; format: in vivo, Amaranthus retroflexus L.; details: observed 20th to 28th day
Procedure, shortened: as §2

prickly sida [15] = experiment: as above; format: in vivo, Sida spinosa L.; details: observed 20th to 28th day
Procedure, shortened: as §2

velvetleaf [16] = experiment: as above; format: in vivo, Abutilon theophrasti MEDIC.; details: observed 20th to 28th day
Procedure, shortened: as §2

rice [17] = experiment: as above; format: in vivo, Oryza sativa L.; details: observed 20th to 28th day
Procedure, shortened: as §2

corn [18] = experiment: as above; format: in vivo, Zea mays L.; details: observed 20th to 28th day
Procedure, shortened: as §2

soybean [19] = experiment: as above; format: in vivo, Glycine max Merr.; details: observed 20th to 28th day
Procedure, shortened: as §2

barnyardgrass [20] = experiment: Test Example 3: paddy pot test, application under submerged conditions; format: in vivo, Echinochloa crus-galli L.; details: active ingredient 500 g/ha; submerged application at 0.5 leaf stage; visually observed 14 days after application; 0 = non-treated, 100 = complete kill
Procedure, shortened: (§3)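 Visual growth-control rating (0 = untreated, 100 = complete kill) 14 days after treatment. The formulated compound, as a diluted wettable powder or emulsifiable concentrate, went into 3–4 cm flood water at a predetermined active-ingredient dose once the weeds reached 0.5 leaf stage (wapato: primary leaf stage).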

japanese bulrush = experiment: as above; format: in vivo, Scirpus juncoides; details: active ingredient 500 g/ha; submerged application at 0.5 leaf stage; visually observed 14 days after application; 0 = non-treated, 100 = complete kill
Procedure, shortened: as §3

rice (var. Nihonbare) = experiment: Test Example 3: paddy pot test, transplanted rice; format: in vivo, Oryza sativa L.; details: active ingredient 500 g/ha, applied 4th day after transplantation, visually observed 21st day after application, 0 = non-treated, 100 = complete kill
Procedure, shortened: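 Rice (var. Nihonbare) at 2 leaf stage transplanted 3 cm deep into puddled paddy soil under 3–4 cm flooding; on day 4 after transplanting, diluted wettable powder or emulsifiable concentrate applied by pipette under submerged conditions at a set active-ingredient dose. Growth scored visually 21 days after application, 0 (untreated) to 100 (complete kill) %.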

wheat [21] = experiment: Test Example 2: soil surface treatment, upland pot test; format: in vivo, Triticum spp.; details: active ingredient 2000 g/ha, observed 20th to 28th day
From the text: Upland field soil was put into a 1/170,000 ha pot, and seed of various plants (barnyardgrass, crabgrass, green foxtail, redroot pigweed, prickly sida, velvetleaf, rice, wheat, corn, soybean) were sown. On the 1st day after the sowing, a wettable powder or emulsifiable concentrate having the compound of the present invention formulated in accordance with a usual formulation method, was weighed so that the active ingredient would be a predetermined amount, and diluted with water in an amount of 1,500 L/ha. The herbicide thus adjusted was applied by a small size sprayer for soil surface treatment. On the 20th to 28th days after the application of the herbicide, the growth of the respective plants was visually observed, and the herbicidal effects were evaluated by the growth controlling degrees (%) ranging from 0 (equivalent to the non-treated plot) to 100 (complete kill), whereby the results shown in Table 4, were obtained.

japanese ribbon wapato = experiment: Test Example 3: paddy pot test, application under submerged conditions; format: in vivo, Sagittaria pygniaea; details: active ingredient 500 g/ha; submerged application at primary leaf stage; visually observed 14 days after application; 0 = non-treated, 100 = complete kill
Procedure, shortened: as §3

SMILES | Growth controlling degree (%) Barnyardgrass (barnyardgrass [1]; active ingredient 500 g/ha) | Growth controlling degree (%) Crabgrass (crabgrass [2]; active ingredient 500 g/ha) | Growth controlling degree (%) Green foxtail (green foxtail [3]; active ingredient 500 g/ha) | Growth controlling degree (%) Redroot pigweed (redroot pigweed [4]; active ingredient 500 g/ha) | Growth controlling degree (%) Prickly sida (prickly sida [5]; active ingredient 500 g/ha) | Growth controlling degree (%) Velvetleaf (velvetleaf [6]; active ingredient 500 g/ha) | Growth controlling degree (%) Rice (rice [7]; active ingredient 500 g/ha) | Growth controlling degree (%) wheat (wheat [8]; active ingredient 500 g/ha) | Growth controlling degree (%) Corn (corn [9]; active ingredient 500 g/ha) | Growth controlling degree (%) Soybean (soybean [10]; active ingredient 500 g/ha) | Growth controlling degree (%) Barnyardgrass (barnyardgrass [11]; active ingredient 500 g/ha) | Growth controlling degree (%) Crabgrass (crabgrass [12]; active ingredient 500 g/ha) | Growth controlling degree (%) Green foxtail (green foxtail [13]; active ingredient 500 g/ha) | Growth controlling degree (%) Redroot pigweed (redroot pigweed [14]; active ingredient 500 g/ha) | Growth controlling degree (%) Prickly sida (prickly sida [15]; active ingredient 500 g/ha) | Growth controlling degree (%) Velvetleaf (velvetleaf [16]; active ingredient 500 g/ha) | Growth controlling degree (%) Barnyardgrass (barnyardgrass [20]) | Growth controlling degree (%) Japanese bulrush (japanese bulrush) | Growth controlling degree (%) Rice (rice (var. Nihonbare)) | Growth controlling degree (%) Japanese ribbon wapato (japanese ribbon wapato) | further results
CON=Cc1ccc(CC(=O)N(C)C(c2cnccc2C(F)(F)F)C(C)C)cc1 (racemic) [I-122] | 80% | 95% | 60% | 70% | 80% | 70% | 10% | 0% | 80% | 80% | 98% | 100% | 100% | 60% | 50% | 30% | 98% | 100% | 10% | – | Growth controlling degree (%) Rice (rice [17]; active ingredient 500 g/ha): 20%; Growth controlling degree (%) Corn (corn [18]; active ingredient 500 g/ha): 10%; Growth controlling degree (%) Soyabean (soybean [19]; active ingredient 500 g/ha): 10%
CN(C(=O)Cc1ccccc1)C(c1cnccc1C(F)(F)F)c1cccc2ccccc12 (stereo not shown) [Compound I-47] | – | – | – | – | – | – | – | – | – | – | – | – | – | – | – | – | 98% | 30% | 10% | 0% | Growth controlling degree (%) Barnyardgrass (barnyardgrass [11]; active ingredient 2000 g/ha): 60%; Growth controlling degree (%) Crabgrass (crabgrass [12]; active ingredient 2000 g/ha): 90%; Growth controlling degree (%) Green foxtail (green foxtail [13]; active ingredient 2000 g/ha): 80%; Growth controlling degree (%) Redroot pigweed (redroot pigweed [14]; active ingredient 2000 g/ha): 0%; Growth controlling degree (%) Prickly sida (prickly sida [15]; active ingredient 2000 g/ha): 40%; Growth controlling degree (%) Velvetleaf (velvetleaf [16]; active ingredient 2000 g/ha): 20%; Growth controlling degree (%) Rice (rice [17]; active ingredient 2000 g/ha): 0%; Growth controlling degree (%) wheat (wheat [21]): 20%; Growth controlling degree (%) Corn (corn [18]; active ingredient 2000 g/ha): 10%; Growth controlling degree (%) Soyabean (soybean [19]; active ingredient 2000 g/ha): 10%
CN(C(=O)Cc1cccs1)C(c1cnccc1C(F)(F)F)c1cccc2ccccc12 (stereo not shown) [Compound I-48] | – | – | – | – | – | – | – | – | – | – | – | – | – | – | – | – | 100% | 30% | 10% | 0% | Growth controlling degree (%) Barnyardgrass (barnyardgrass [11]; active ingredient 2000 g/ha): 20%; Growth controlling degree (%) Crabgrass (crabgrass [12]; active ingredient 2000 g/ha): 70%; Growth controlling degree (%) Green foxtail (green foxtail [13]; active ingredient 2000 g/ha): 100%; Growth controlling degree (%) Redroot pigweed (redroot pigweed [14]; active ingredient 2000 g/ha): 30%; Growth controlling degree (%) Prickly sida (prickly sida [15]; active ingredient 2000 g/ha): 20%; Growth controlling degree (%) Velvetleaf (velvetleaf [16]; active ingredient 2000 g/ha): 40%; Growth controlling degree (%) Rice (rice [17]; active ingredient 2000 g/ha): 20%; Growth controlling degree (%) wheat (wheat [21]): 30%; Growth controlling degree (%) Corn (corn [18]; active ingredient 2000 g/ha): 10%; Growth controlling degree (%) Soyabean (soybean [19]; active ingredient 2000 g/ha): 0%
COc1ccc(C=CC(=O)N(C)C(c2cnccc2C(F)(F)F)C(C)C)cc1 (stereo not shown) [I-182] | 80% | 80% | 50% | 50% | 70% | 50% | 20% | 10% | 60% | 70% | 90% | 100% | 95% | 30% | 10% | 50% | 100% | 98% | 0% | 80% | Growth controlling degree (%) Rice (rice [17]; active ingredient 500 g/ha): 50%; Growth controlling degree (%) Corn (corn [18]; active ingredient 500 g/ha): 10%; Growth controlling degree (%) Soyabean (soybean [19]; active ingredient 500 g/ha): 10%
CC(C)C(c1cnccc1C(F)(F)F)N(C)C(=O)C=Cc1ccc(C(F)(F)F)cc1 (stereo not shown) [I-186] | 50% | 60% | 40% | 50% | 60% | 60% | 10% | 60% | 50% | 70% | 40% | 98% | 100% | 40% | 10% | 0% | 98% | 95% | 10% | – | Growth controlling degree (%) Rice (rice [17]; active ingredient 500 g/ha): 20%; Growth controlling degree (%) Corn (corn [18]; active ingredient 500 g/ha): 30%; Growth controlling degree (%) Soyabean (soybean [19]; active ingredient 500 g/ha): 0%
CC(C)C(c1cnccc1C(F)(F)F)N(C)C(=O)C=Cc1cccc2ccccc12 (stereo not shown) [I-187] | – | – | – | – | – | – | – | – | – | – | – | – | – | – | – | – | 100% | 10% | 0% | 20% | Growth controlling degree (%) Barnyardgrass (barnyardgrass [1]; active ingredient 1000 g/ha): 60%; Growth controlling degree (%) Crabgrass (crabgrass [2]; active ingredient 1000 g/ha): 95%; Growth controlling degree (%) Green foxtail (green foxtail [3]; active ingredient 1000 g/ha): 60%; Growth controlling degree (%) Redroot pigweed (redroot pigweed [4]; active ingredient 1000 g/ha): 80%; Growth controlling degree (%) Prickly sida (prickly sida [5]; active ingredient 1000 g/ha): 90%; Growth controlling degree (%) Velvetleaf (velvetleaf [6]; active ingredient 1000 g/ha): 40%; Growth controlling degree (%) Rice (rice [7]; active ingredient 1000 g/ha): 30%; Growth controlling degree (%) wheat (wheat [8]; active ingredient 1000 g/ha): 10%; Growth controlling degree (%) Corn (corn [9]; active ingredient 1000 g/ha): 80%; Growth controlling degree (%) Soybean (soybean [10]; active ingredient 1000 g/ha): 60%
